PubChem BioAssay (NCI)
Values joined by “and” are separate entries in the source; they are usually repeats but may differ in a detail not shown here. Identical values can stand only once.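 Results reflect a 48-hour exposure of cells in 96-well plates to compound at five concentrations. Abbreviation: GI50, concentration required for 50% inhibition of growth. TGI: concentration producing complete growth inhibition.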

Experiments:
Assay in all cases: DTP human tumour cell line panel, 48 h
SF-539 CNS = test system: SF-539 CNS
K-562 leukemia = test system: K-562 leukemia
HCT-116 colon = test system: HCT-116 colon
SK-MEL-28 melanoma = test system: SK-MEL-28 melanoma
OVCAR-3 ovarian = test system: OVCAR-3 ovarian
SN12C renal = test system: SN12C renal
SK-OV-3 ovarian = test system: SK-OV-3 ovarian
MCF7 breast = test system: MCF7 breast
SF-268 CNS = test system: SF-268 CNS
ACHN renal = test system: ACHN renal

Row | SMILES | GI50 (SF-539 CNS) [µM] | TGI (SF-539 CNS) | GI50 (K-562 leukemia) [µM] | TGI (K-562 leukemia) | GI50 (HCT-116 colon) | TGI (HCT-116 colon) | GI50 (SK-MEL-28 melanoma) [µM] | TGI (SK-MEL-28 melanoma) | GI50 (OVCAR-3 ovarian) [µM] | TGI (OVCAR-3 ovarian) | GI50 (SN12C renal) [µM] | TGI (SN12C renal) | GI50 (SK-OV-3 ovarian) [µM] | TGI (SK-OV-3 ovarian) | GI50 (MCF7 breast) [µM] | TGI (MCF7 breast) | GI50 (SF-268 CNS) [µM] | TGI (SF-268 CNS) | GI50 (ACHN renal) [µM] | TGI (ACHN renal)
1 | CC(=O)O[C@H]1C[C@@H]2[C@@]3(C)CC[C@H]4C[C@@]4(C)[C@@H]3CC[C@@]2(C)C2=CCC3=C(COC3=O)[C@]21C | 15.7 | 32.5 µM | 40.4 | > 100 µM | 19.5 µM | 43.7 µM | 21.6 | 44 µM | 10.1 | 25.7 µM | 18.7 | 38.3 µM | 32.6 | > 100 µM | 24 | 89.8 µM | 21 | 46.9 µM | 21.5 | 43.9 µM
2 | O=C1NC(=O)C2C3C=CC(C12)C1C2C(=O)NC(=O)C2C31 (configuration not stated) | 316 | 199 µM and > 1000 µM | 137 | 250 µM and > 1000 µM | > 39.9 µM and 308 µM | > 55.9 µM and 250 µM and > 1000 µM | 938 | 244 µM and > 1000 µM | > 909 | 250 µM and > 1000 µM | 419 | 250 µM and > 1000 µM | > 767 | 108 µM and > 1000 µM | 537 | 250 µM and > 1000 µM | > 896 | > 1000 µM | 766 | > 1000 µM
3 | CCCCCCCCCCCCOC1C(C(COC2OC(C(O)CO)C3OC(C)(C)OC23)OC(=O)Nc2ccccc2)OC2OC(C)(C)OC21 (configuration not stated) | 9.14 | 22.3 µM | 3.44 | 16.9 µM | 2.14 µM | 5.79 µM | 7.24 | 19.3 µM | 6.52 | 19.6 µM | 4.89 | 16.6 µM | 15.6 | 30 µM | 3.85 | 13.6 µM | 4.47 | 16.6 µM | 4.82 | 16.3 µM
4 | O=[N+]([O-])c1ccc(/C=C(/c2ccc([N+](=O)[O-])o2)S(=O)(=O)c2ccccc2)cc1 | – | 98.3 µM | – | > 100 µM | – | > 100 µM | – | > 100 µM | – | > 100 µM | – | – | – | > 100 µM | – | > 100 µM | – | > 100 µM | – | > 100 µM
5 | CN(C)CCCC1(c2ccc(F)cc2)OCc2cc(-c3csc4ccccc34)ccc21 (configuration not stated) | 1.71 | 3.08 µM | 1.72 | 3.45 µM | – | – | 1.68 | 3.07 µM | 1.73 | 3.26 µM | 1.63 | 3.13 µM | 1.61 | 3.12 µM | 1.67 | 3.27 µM | 1.64 | 3.19 µM | 1.64 | 3 µM
6 | N#C[Se]CCN1C(=O)c2ccccc2C1=O | 1.92 | 6.85 µM | 2.35 | 15.5 µM | 1.06 µM | 3.23 µM | 1.8 | 4.99 µM | 2.73 | 9.39 µM | 2.69 | 10.9 µM | 3.46 | 8.72 µM | 2.24 | 13.1 µM | 1.83 | 3.84 µM | 3.33 | 11.9 µM
7 | N=C(N)SCc1ccc(Cl)c2ccccc12 (tested in a mixture with another compound) | – | 23.1 µM and 20.4 µM | – | 19.4 µM and 10.1 µM | – | 24.5 µM and 28.2 µM | – | 28.1 µM and 25.6 µM | – | 23.6 µM and 25 µM | – | 24.3 µM and 24.9 µM | – | 25.9 µM and 28.9 µM | – | 24.7 µM and 27.9 µM | – | 33.3 µM and 33.5 µM | – | 25.1 µM and 25.8 µM
